According to patent US20260078120A1, “SUBSTITUTED PYRIDOPYRIMIDINONES” (MIRATI THERAPEUTICS, INC., priority 2022, published 2026):

Experiments:
[1] = tested on: T47D (PI3Kα H1047R mutant) cells; experiment: CellTiter-Glo 2.0 luminescent cell viability assay, 72 hours, T47D cells; assay type: cell-based; details: Homo sapiens, T47D, 72 h, T47D (PI3Kα H1047R mutant) cells, CellTiter-Glo, approximately 72 hours; read-out: T47D (H1047R mutant) Viability IC50
Outline: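 Cells seeded at 1000 per well overnight were dosed with a 10-concentration, 1:4 series starting at 10 µM and incubated ~72 h at 37° C. Viability was read by CellTiter-Glo 2.0 luminescence after 30 min at room temperature. IC50 came from four-parameter fits of percent vehicle control.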

[2] = tested on: SKBR3 (PI3Kα wild type) cells; experiment: CellTiter-Glo 2.0 luminescent cell viability assay, 72 hours, SKBR3 cells; assay type: cell-based; details: Homo sapiens, SK-BR-3, 72 h, SKBR3 (PI3Kα wild type) cells, CellTiter-Glo, approximately 72 hours; read-out: SKBR3 (WT) Viability IC50
Outline: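 Viability measured via CTG luminescence following roughly 72 hours of compound exposure at 37° C. Dosing used a 10 um starting concentration diluted 1:4 over 10 points; percent-of-vehicle data fitted with a variable-slope four-parameter model for IC50.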

Q: Which IC50 [1] does the source give for `Cc1cc([C@@H](C)Nc2ccccc2C(=O)O)c2nc(N3CCC4(CCO4)C3)c(C#N)c(=O)n2c1` (stereo partly drawn) [Example 11-285, 2-(((1R)-1-(3-cyano-7-methyl-4-oxo-2-(1-oxa-6-azaspiro[3.4]octan-6-yl)-4H-pyrido[1,2-a]pyrimidin-9-yl)ethyl)amino)benzoic acid] here?
A: > 10 µM

Q: And the IC50 [2]?
A: > 10 µM

Q: Which results are given for `Cc1cc([C@@H](C)Nc2ccccc2C(=O)O)c2nc(N3Cc4ccncc4C3)c(C#N)c(=O)n2c1` [Example 11-286, (R)-2-((1-(3-cyano-2-(1,3-dihydro-2H-pyrrolo[3,4-c]pyridin-2-yl)-7-methyl-4-oxo-4H-pyrido[1,2-a]pyrimidin-9-yl)ethyl)amino)benzoic acid]?
A: IC50 [1]: 0.284 µM; IC50 [2]: > 10 µM

Q: With `Cc1cc([C@@H](C)Nc2ccccc2C(=O)O)c2nc(N3Cc4ccccc4C3CO)c(C#N)c(=O)n2c1` (stereo partly drawn) [Example 11-288, 2-(((1R)-1-(3-cyano-2-(1-(hydroxymethyl)isoindolin-2-yl)-7-methyl-4-oxo-4H-pyrido[1,2-a]pyrimidin-9-yl)ethyl)amino)benzoic acid] as the compound, how does the IC50 [1] read?
A: 0.721 µM

Q: What about the IC50 [2] of the same compound?
A: > 10 µM

Q: What does the source list for `Cc1cc([C@@H](C)Nc2ccccc2C(=O)O)c2nc(N3CCC4(CCC(=O)N4)C3)c(C#N)c(=O)n2c1` (stereo partly drawn) [Example 11-289, 2-(((1R)-1-(3-cyano-7-methyl-4-oxo-2-(2-oxo-1,7-diazaspiro[4.4]nonan-7-yl)-4H-pyrido[1,2-a]pyrimidin-9-yl)ethyl)amino)benzoic acid]?
A: IC50 [1]: 1.87 µM; IC50 [2]: > 10 µM

Q: How did the IC50 [1] turn out when `Cc1c(N2Cc3ccccc3C2)nc2c([C@@H](C)Nc3ccccc3C(=O)O)cc(F)cn2c1=O` [Example 11-290, (R)-2-((1-(7-fluoro-2-(isoindolin-2-yl)-3-methyl-4-oxo-4H-pyrido[1,2-a]pyrimidin-9-yl)ethyl)amino)benzoic acid] was run?
A: 0.392 µM

Q: What about the IC50 [2] of the same compound?
A: > 10 µM

Q: Which IC50 [1] does the source give for `Cc1c(N2Cc3ccccc3C2)nc2c([C@@H](C)Nc3ccccc3C(=O)O)cc(Cl)cn2c1=O` [Example 11-291, (R)-2-((1-(7-chloro-2-(isoindolin-2-yl)-3-methyl-4-oxo-4H-pyrido[1,2-a]pyrimidin-9-yl)ethyl)amino)benzoic acid] here?
A: 0.117 µM

Q: And the IC50 [2]?
A: > 10 µM

Q: Which IC50 [1] does the source give for `Cc1cc([C@@H](C)Nc2scnc2C(=O)O)c2nc(N3CCC(F)(F)CC3)c(C#N)c(=O)n2c1` [Example 11-292, (R)-5-((1-(3-cyano-2-(4,4-difluoropiperidin-1-yl)-7-methyl-4-oxo-4H-pyrido[1,2-a]pyrimidin-9-yl)ethyl)amino)thiazole-4-carboxylic acid] here?
A: 3.95 µM

Q: What about the IC50 [2] of the same compound?
A: > 10 µM

Q: Which IC50 [1] does the source give for `Cc1cc([C@@H](C)Nc2ccc(F)cc2C(=O)O)c2nc(N3CCCCC3)c(C#N)c(=O)n2c1` [Example 11-293, (R)-2-((1-(3-cyano-7-methyl-4-oxo-2-(piperidin-1-yl)-4H-pyrido[1,2-a]pyrimidin-9-yl)ethyl)amino)-5-fluorobenzoic acid] here?
A: 0.168 µM

Q: And the IC50 [2]?
A: > 10 µM

Q: What does the source list for `Cc1cc([C@@H](C)Nc2ccccc2C(=O)O)c2nc(N3C[C@H]4CC[C@@H]3C4)c(C#N)c(=O)n2c1` [Example 11-294, 2-(((R)-1-(2-((1R,4S)-2-azabicyclo[2.2.1]heptan-2-yl)-3-cyano-7-methyl-4-oxo-4H-pyrido[1,2-a]pyrimidin-9-yl)ethyl)amino)benzoic acid]?
A: IC50 [1]: 0.17 µM; IC50 [2]: > 10 µM

Q: With `Cc1cc([C@@H](C)Nc2ccccc2C(=O)O)c2nc(N3CCN(C)CC3)c(C#N)c(=O)n2c1` [Example 11-295, (R)-2-((1-(3-cyano-7-methyl-2-(4-methylpiperazin-1-yl)-4-oxo-4H-pyrido[1,2-a]pyrimidin-9-yl)ethyl)amino)benzoic acid] as the compound, how does the IC50 [1] read?
A: 0.503 µM

Q: And the IC50 [2]?
A: > 10 µM

Q: How did the IC50 [1] turn out when `Cc1cc([C@@H](C)Nc2ccccc2C(=O)O)c2nc(N3CCNCC3)c(C#N)c(=O)n2c1` [Example 11-296, (R)-2-((1-(3-cyano-7-methyl-4-oxo-2-(piperazin-1-yl)-4H-pyrido[1,2-a]pyrimidin-9-yl)ethyl)amino)benzoic acid] was run?
A: > 10 µM

Q: And the IC50 [2]?
A: > 10 µM

Q: How did the IC50 [1] turn out when `Cc1cc([C@@H](C)Nc2ccccc2C(=O)O)c2nc(N3CCCC(F)(F)C3)c(C#N)c(=O)n2c1` [Example 11-297, (R)-2-((1-(3-cyano-2-(3,3-difluoropiperidin-1-yl)-7-methyl-4-oxo-4H-pyrido[1,2-a]pyrimidin-9-yl)ethyl)amino)benzoic acid] was run?
A: 0.195 µM

Q: And the IC50 [2]?
A: > 10 µM

Q: What does the source list for `Cc1cc([C@@H](C)Nc2ccc(Cl)nc2C(=O)O)c2nc(N3CCC(F)(F)CC3)c(C)c(=O)n2c1` [Example 11-298, (R)-6-chloro-3-((1-(2-(4,4-difluoropiperidin-1-yl)-3,7-dimethyl-4-oxo-4H-pyrido[1,2-a]pyrimidin-9-yl)ethyl)amino)picolinic acid]?
A: IC50 [1]: 0.139 µM; IC50 [2]: > 10 µM

Q: For `Cc1cc(C(C)Nc2ccccc2)c2nc(N3CCCCC3)c(C#N)c(=O)n2c1` (stereo not drawn) [Example 11-299, 7-methyl-4-oxo-9-(1-(phenylamino)ethyl)-2-(piperidin-1-yl)-4H-pyrido[1,2-a]pyrimidine-3-carbonitrile], which IC50 [1] is on record?
A: 9.25 µM

Q: What about the IC50 [2] of the same compound?
A: 9.32 µM

Q: How did the IC50 [1] turn out when `Cc1cc([C@H](C)Nc2ccccc2)c2nc(N3Cc4ccccc4C3)c(C#N)c(=O)n2c1` [Example 11-300, (S)-2-(isoindolin-2-yl)-7-methyl-4-oxo-9-(1-(phenylamino)ethyl)-4H-pyrido[1,2-a]pyrimidine-3-carbonitrile] was run?
A: 3.71 µM

Q: What about the IC50 [2] of the same compound?
A: > 10 µM

Q: What does the source list for `Cc1cc([C@@H](C)Nc2ccccc2)c2nc(N3Cc4ccccc4C3)c(C#N)c(=O)n2c1` [Example 11-301, (R)-2-(isoindolin-2-yl)-7-methyl-4-oxo-9-(1-(phenylamino)ethyl)-4H-pyrido[1,2-a]pyrimidine-3-carbonitrile]?
A: IC50 [1]: 9.15 µM; IC50 [2]: 8.83 µM

Q: `Cc1cc(C(C)Nc2ccccc2)c2nc(N3Cc4ccccc4C3)c(C#N)c(=O)n2c1` (stereo not drawn) [Example 11-302, 2-(isoindolin-2-yl)-7-methyl-4-oxo-9-(1-(phenylamino)ethyl)-4H-pyrido[1,2-a]pyrimidine-3-carbonitrile] was tested. Which IC50 [1] did it give?
A: 1.44 µM

Q: And the IC50 [2]?
A: 8.97 µM

Q: With `Cc1cc([C@@H](C)Nc2ccccc2C(=O)O)c2nc(N3CCC(F)(F)CC3)c(C)c(=O)n2c1` [Example 11-303, (R)-2-((1-(2-(4,4-difluoropiperidin-1-yl)-3,7-dimethyl-4-oxo-4H-pyrido [1,2-a]pyrimidin-9-yl)ethyl)amino)benzoic acid] as the compound, how does the IC50 [1] read?
A: 0.114 µM

Q: What about the IC50 [2] of the same compound?
A: > 10 µM

Q: `Cc1cc([C@@H](C)Nc2ccccc2C(=O)O)c2nc(N3Cc4ncsc4C3)c(C)c(=O)n2c1` [Example 11-304, (R)-2-((1-(2-(4,6-dihydro-5H-pyrrolo[3,4-d]thiazol-5-yl)-3,7-dimethyl-4-oxo-4H-pyrido[1,2-a]pyrimidin-9-yl)ethyl)amino)benzoic acid] was tested. Which IC50 [1] did it give?
A: 0.197 µM

Q: What about the IC50 [2] of the same compound?
A: > 10 µM

Q: What does the source list for `Cc1cc([C@@H](C)Nc2ccccc2C(=O)O)c2nc(N3CCc4sc(C)nc4C3)c(C#N)c(=O)n2c1` [Example 11-305, (R)-2-((1-(3-cyano-7-methyl-2-(2-methyl-6,7-dihydrothiazolo[4,5-c]pyridin-5(4H)-yl)-4-oxo-4H-pyrido[1,2-a]pyrimidin-9-yl)ethyl)amino)benzoic acid]?
A: IC50 [1]: 0.501 µM; IC50 [2]: > 10 µM

Q: Which results are given for `Cc1cc([C@@H](C)Nc2ccccc2C(=O)O)c2nc(N3CCc4scnc4C3)c(C#N)c(=O)n2c1` [Example 11-306, (R)-2-((1-(3-cyano-2-(6,7-dihydrothiazolo[4,5-c]pyridin-5(4H)-yl)-7-methyl-4-oxo-4H-pyrido[1,2-a]pyrimidin-9-yl)ethyl)amino)benzoic acid]?
A: IC50 [1]: 0.557 µM; IC50 [2]: > 10 µM

Q: `Cc1cc([C@@H](C)Nc2cccc(F)c2C(=O)O)c2nc(N3Cc4ccccc4C3)c(C#N)c(=O)n2c1` [Example 11-307, (R)-2-((1-(3-cyano-2-(isoindolin-2-yl)-7-methyl-4-oxo-4H-pyrido[1,2-a]pyrimidin-9-yl)ethyl)amino)-6-fluorobenzoic acid] was tested. Which IC50 [1] did it give?
A: 0.379 µM

Q: What about the IC50 [2] of the same compound?
A: > 10 µM

Q: How did the IC50 [1] turn out when `Cc1cc([C@@H](C)Nc2ccccc2C(=O)O)c2nc(NCC(C)C)c(C#N)c(=O)n2c1` [Example 11-308, (R)-2-((1-(3-cyano-2-(isobutylamino)-7-methyl-4-oxo-4H-pyrido[1,2-a]pyrimidin-9-yl)ethyl)amino)benzoic acid] was run?
A: 0.121 µM

Q: And the IC50 [2]?
A: > 10 µM

Q: For `Cc1cc([C@@H](C)Nc2ccccc2C(=O)O)c2nc(NCC(C)C)c(C)c(=O)n2c1` [Example 11-309, (R)-2-((1-(2-(isobutylamino)-3,7-dimethyl-4-oxo-4H-pyrido[1,2-a]pyrimidin-9-yl)ethyl)amino)benzoic acid], which IC50 [1] is on record?
A: 0.313 µM

Q: And the IC50 [2]?
A: > 10 µM

Q: How did the IC50 [1] turn out when `Cc1cc([C@@H](C)Nc2ccc(C#N)cc2C(=O)O)c2nc(N3Cc4ccccc4C3)c(C)c(=O)n2c1` [Example 11-310, (R)-5-cyano-2-((1-(2-(isoindolin-2-yl)-3,7-dimethyl-4-oxo-4H-pyrido[1,2-a]pyrimidin-9-yl)ethyl)amino)benzoic acid] was run?
A: 0.634 µM

Q: And the IC50 [2]?
A: > 10 µM

Q: How did the IC50 [1] turn out when `Cc1cc([C@@H](C)Nc2ccccc2C(=O)O)c2nc(N3CCC(N(C)C)CC3)c(C)c(=O)n2c1` [Example 11-311, (R)-2-((1-(2-(4-(dimethylamino)piperidin-1-yl)-3,7-dimethyl-4-oxo-4H-pyrido[1,2-a]pyrimidin-9-yl)ethyl)amino)benzoic acid] was run?
A: 3.97 µM

Q: And the IC50 [2]?
A: > 10 µM

Q: For `Cc1cc([C@@H](C)Nc2ccccc2C(=O)O)c2nc(N3CCC(O)CC3)c(C#N)c(=O)n2c1` [Example 11-312, (R)-2-((1-(3-cyano-2-(4-hydroxypiperidin-1-yl)-7-methyl-4-oxo-4H-pyrido[1,2-a]pyrimidin-9-yl)ethyl)amino)benzoic acid], which IC50 [1] is on record?
A: 5.08 µM

Q: And the IC50 [2]?
A: > 10 µM
